Assay results reported in patent publication US20100093653A1, “Use of 1,6-Bis [3-(3-carboxymethylphenyl)-4-(2-alpha-D-mannopyranosyl-oxy)-phenyl] hexane for the preparation of cosmetic compositions” (Revotar Biopharmaceuticals AG, priority 2006, published 2010).

Experiments:
[1] = test system: isolated perfused porcine fore limb; experiment: isolated perfused porcine fore limb transdermal penetration assay; assay type: in vitro ADME; details: microemulsion of example 6; 5 h application time; LC/MS
Description: By using the microemulsion as described in example 6 skin penetration studies of FORM 1 of 1,6-Bis [3-(3-carboxymethylphenyl)-4-(2-α-D-mannopyranosyloxy)-phenyl]hexane employing an isolated perfused porcine fore limb transdermal penetration assay using pig porcine is performed according to the methods known to the skilled person. The isolated perfused porcine fore limb is an assay system, which retains intact anatomy and skin, muscle, blood vessel and bone morphology. The organ is kept vitalized by perfusion with a blood-based perfusion medium for up to 6 h. This system allows monitoring of transdermal, resorption, penetration or permeation of pharmaceuticals and cosmetics. 3 application sites are choosen and surrounded by Leukosilk. On each of these areas 10 μl of microemulsion are applied with a pipette and distributed with the pipette tip.
For three additional application sites, the cotton pads of three Hill Top chambers in total, are soaked and saturated with microemulsion and applied to skin. After 5 h application time Hill Top chambers are removed and the unabsorbed microemulsion from the free sites is removed with a dry swab each. 20 Tesa strips are collected from each of the six applications sites. […] Swabs, strips, skin biopsys are analysed for content of FORM 1 of 1,6-Bis [3-(3-carboxymethylphenyl)-4-(2-α-D-mannopyranosyloxy)-phenyl]hexane with LC/MS. […]

porcine skin = experiment: Franz diffusion cell penetration assay using porcine skin; assay type: in vitro ADME; details: microemulsion of example 6; 10.4 μl on 1000 μm porcine skin; 8 h; 37° C.; LC/MS
Description: By using the microemulsion as described in example 6, skin penetration studies of FORM 1 of 1,6-Bis [3-(3-carboxymethylphenyl)-4-(2-α-D-mannopyranosyloxy)-phenyl]hexane in employing a Franz diffusion cell penetration assay using porcine skin is performed according to the methods known to the skilled person. Porcine skin samples (6 in total, 2 from each animal, 3 female animals in total), 1000 μm thick, with the stratum corneum facing up are placed onto the lower part of a Franz diffusion cell. The cell is rinsed with medium tempered to 37° C. to prevent the skin from drying out and the system is equilibrated for 30 minutes. 10.4 μl of microemulsion as described in example 6 is applied to the dry upper side of the epidermis using a pipette and the microemulsion is distributed with an inoculation loop. Medium is collected every hour.
After 8 h the experiment is finished. The skin is punched out and the surface of the skin is swabed to removed excess microemulsion. The dry surface is stripped 20 times using Tesafilm. Swabs, strips, medium and skin samples are analysed for content of FORM 1 of 1,6-Bis [3-(3-carboxymethylphenyl)-4-(2-α-D-mannopyranosyloxy)-phenyl]hexane by LC/MS. On average 4% of the applied amount of FORM 1 of 1,6-Bis [3-(3-carboxymethylphenyl)-4-(2-α-D-mannopyranosyloxy)-phenyl]hexane in the microemulsion as described in example 6 penetrates into skin.

wrinkles of crow's feet = experiment: Anti-wrinkle efficacy, crow's feet skin replicas with image analysis; assay type: in vivo, healthy subjects; details: microemulsion of example 6, twice a day for 28 days; treated vs untreated crow's feet; all subjects
Text: By using the microemulsion as described in example 6, the anti-wrinkle effect of FORM 1 of 1,6-Bis [3-(3-carboxymethylphenyl)-4-(2-α-D-mannopyranosyloxy)-phenyl]hexane (compound of formula (I)) is investigated according to methods known to the skilled person. 40 healthy subjects aged between 34 and 59 years, comprising 35 women and 5 men are selected. The formulation containing FORM 1 of the compound of formula (I), is applied twice a day, in the morning and in the evening, to one temporal zone of the face (crow's feet) for 28 days. The other zone remains untreated and serves as a control. An impression (skin replicas) is made from the control and treated zone at time 0 and after 28 days of treatment using SILFO impression material (Flexico, England).

[2] = test system: skin elasticity of the back; experiment: Model of hormone induced skin ageing (menopause model, bilateral ovarectomy); assay type: in vivo, female hairless mice; details: microemulsion of example 6 onto the back twice daily for two months after ovary removal; vehicle control animals showed the reduction
Text: By using the microemulsion as described in example 6, the effect of FORM 1 of 1,6-Bis [3-(3-carboxymethylphenyl)-4-(2-α-D-mannopyranosyloxy)-phenyl]hexane (compound of formula (I)) on hormone induced skin ageing is investigated employing a menopause model according to methods known to the skilled person. Five-week old female hairless mice are subjected to bilateral ovarectomy, and used as an animal model of menopause. For two months from immediately after ovary extraction, the formulation containing FORM 1 of compound of formula (I) is applied onto the back twice daily. As a control, the formulation without FORM 1 of compound of formula (I) is applied in a similar protocol (vehicle control). […] Two months after ovary removal, skin elasticity of the back is measured using a Cutometer (COURAGE KHAZAKSA).

photoageing = experiment: Protective effect against photoageing, chronic solar-simulated UV radiation; assay type: in vivo, hairless mice; details: microemulsion of example 6, topical twice daily during 30 weeks UV-exposure; histology
Text: By using the microemulsion as described in example 6, the protective effect of FORM 1 of 1,6-Bis [3-(3-carboxymethylphenyl)-4-(2-α-D-mannopyranosyloxy)-phenyl]hexane (compound of formula (I)) against photoageing (hairless mice) is investigated according to methods known to the skilled person. Hairless mice are exposed to chronic solar-simulated UV radiation for 30 weeks.

[3] = test system: photoageing of human skin; experiment: Protective effect against photoaging of human skin, solar simulated UV radiation, immunohistology of biopsies; assay type: in vivo; details: microemulsion of example 6, topical before 2 MED UV; buttock skin biopsies 24 hours after exposition; vehicle control skin showed it
Text: By using the microemulsion as described in example 6, the protective effect of FORM 1 of 1,6-Bis [3-(3-carboxymethylphenyl)-4-(2-α-D-mannopyranosyloxy)-phenyl]hexane (compound of formula (I)) against photoageing of human skin is investigated according to methods known to the skilled person. Two areas of buttock skin (each approximately 2×2 cm) of 10 healthy male white volunteers are exposed to erythematogenic doses (2 MED) of solar simulated UV radiation. Before radiation one area is topically treated with the formulation containing FORM 1 of compound of formula (I), the other with the formulation without FORM 1 of compound of formula (I) (vehicle control). 24 hours after exposition, biopsies are taken from both areas and as control from an area that is not exposed to radiation.

Structure (SMILES): O=C(O)Cc1cccc(-c2cc(CCCCCCc3ccc(O[C@H]4O[C@H](CO)[C@@H](O)[C@H](O)[C@@H]4O)c(-c4cccc(CC(=O)O)c4)c3)ccc2O[C@H]2O[C@H](CO)[C@@H](O)[C@H](O)[C@@H]2O)c1 [FORM 1 of compound of formula (I), 1,6-Bis [3-(3-carboxymethylphenyl)-4-(2-α-D-mannopyranosyloxy)-phenyl]hexane]
- applied amount that penetrates into skin (on average) [1]: 5%
- applied amount that penetrates into skin (on average) (porcine skin): 4%
- depth of wrinkles (wrinkles of crow's feet): significantly reduces
- length of wrinkles (wrinkles of crow's feet): significantly reduces
- number of wrinkles (wrinkles of crow's feet): significantly reduces
- significantly reduced skin elasticity (Cutometer) as compared to normal animals [2]: This was not the case
- degraded dermal collagen (photoageing): protected significantly
- deposition of glycosamisnoglycans in the lower dermis (photoageing): protected significantly
- dermal mast cell number (photoageing): protected significantly
- epidermal hyperplasia (photoageing): protected significantly
- focal elastotic deposits (photoageing): protected significantly
- matrix-metallo-proteinase-1 (MMP-1) [3]: This is not the case
- matrix-metallo-proteinase-9 (MMP-9) [3]: This is not the case
- strong infiltration of neutrophils [3]: This is not the case
